{
  "source": "patent US20020026053A1",
  "about": "“Novel 3-(substituted) -2- indolinones compounds and use thereof as inhibitors of protein kinase activity” (priority 1997, published 2002)",
  "data": [
    {"biological_target": "T1, Met receptor (EGFR/Met chimeric cells, EMR) (Homo sapiens, UniProt P08581)", "T1 construct": "expressed in transfected cells; the other entry of the earlier key: EGFR (P00533, Epidermal growth factor receptor)", "T1 sequence (P08581 with tags, fused parts or gaps)": "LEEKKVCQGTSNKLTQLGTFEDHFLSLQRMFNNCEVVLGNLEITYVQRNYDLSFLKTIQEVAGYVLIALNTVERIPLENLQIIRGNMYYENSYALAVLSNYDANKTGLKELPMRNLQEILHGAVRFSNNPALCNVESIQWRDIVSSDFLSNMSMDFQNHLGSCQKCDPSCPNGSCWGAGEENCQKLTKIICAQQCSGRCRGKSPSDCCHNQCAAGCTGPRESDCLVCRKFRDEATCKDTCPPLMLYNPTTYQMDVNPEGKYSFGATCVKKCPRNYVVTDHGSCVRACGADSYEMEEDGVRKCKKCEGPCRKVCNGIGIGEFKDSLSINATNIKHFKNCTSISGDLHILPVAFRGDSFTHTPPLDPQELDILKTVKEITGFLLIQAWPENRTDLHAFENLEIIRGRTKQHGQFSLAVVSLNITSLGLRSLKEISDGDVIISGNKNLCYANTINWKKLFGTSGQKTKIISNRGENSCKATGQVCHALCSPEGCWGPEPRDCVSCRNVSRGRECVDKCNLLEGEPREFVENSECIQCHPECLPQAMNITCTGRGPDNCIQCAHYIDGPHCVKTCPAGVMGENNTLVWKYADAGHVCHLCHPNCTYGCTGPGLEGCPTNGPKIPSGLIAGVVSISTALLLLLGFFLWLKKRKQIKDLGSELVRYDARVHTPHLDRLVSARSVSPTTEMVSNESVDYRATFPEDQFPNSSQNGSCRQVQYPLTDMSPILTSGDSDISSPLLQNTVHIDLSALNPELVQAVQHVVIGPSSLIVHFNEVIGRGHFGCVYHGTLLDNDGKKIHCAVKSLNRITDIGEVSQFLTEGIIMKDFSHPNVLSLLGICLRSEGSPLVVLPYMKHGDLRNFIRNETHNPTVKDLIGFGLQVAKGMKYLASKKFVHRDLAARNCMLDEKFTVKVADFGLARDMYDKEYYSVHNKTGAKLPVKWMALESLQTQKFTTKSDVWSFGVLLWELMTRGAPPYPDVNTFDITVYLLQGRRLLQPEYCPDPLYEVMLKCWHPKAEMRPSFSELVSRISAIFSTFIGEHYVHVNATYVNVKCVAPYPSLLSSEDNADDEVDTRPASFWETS", "test": "Met Autophosphorylation Assay", "assay_type": "biochemical", "description": "Met Autophosphorylation Assay\nThis assay determines Met tyrosine kinase activity by analyzing Met protein tyrosine kinase levels on the Met receptor.\na. HNTG (5× stock solution): Dissolve 23.83 g HEPES and 43.83 g NaCl in about 350 ml dH2O. Adjust pH to 7.2 with HCl or NaOH, add 500 ml glycerol and 10 ml Triton X-100, mix, add dH2O to 1 L total volume. To make 1 L of 1× working solution add 200 ml 5× stock solution to 800 ml dH2O, check and adjust pH as necessary, store at 4° C.\nb. PBS (Dulbecco's Phosphate-Buffered Saline), Gibco Cat. # 450-1300EB (1× solution).\nc. Blocking Buffer: in 500 ml dH2O place 100 g BSA, 12.1 g Tris-pH7.5, 58.44 g NaCl and 10 ml Tween-20, dilute to 1 L total volume.\nd. Kinase Buffer: To 500 ml dH2O add 12.1 g TRIS (pH 7.2), 58.4 g NaCl, 40.7 g MgCl2 and 1.9 g EGTA; bring to 1 L total volume with dH2O.\ne. PMSF (Phenylmethylsulfonyl fluoride), Sigma Cat. # P-7626, to 435.5 mg, add 100% ethanol to 25 ml total volume, vortex.\nf. ATP (Bacterial Source), Sigma Cat. # A-7699, store powder at −20° C.; to make up solution for use, dissolve 3.31 mg in 1 ml dH2O.\ng. RC-20H HRPO Conjugated Anti-Phosphotyrosine, Transduction Laboratories Cat. # E120H.\nh. Pierce 1-Step Turbo™ B-ELISA (3,3′,5,5′-tetramethylbenzidine, Pierce Cat. # 34022.\ni. H2SO4, add 1 ml conc.(18 N) to 35 ml dH2O.\nj. TRIS HCL, Fischer Cat. # BP152-5; to 121.14 g of material, add 600 ml MilliQ H2O, adjust pH to 7.5 (or 7.2) with HCl, bring volume to 1 L with MilliQ H2O.\nk. NaCl, Fischer Cat. # S271-10, make up 5M solution.\nm. Na3VO4, Fischer Cat. # S454-50, to 1.8 g material add 80 ml MilliQ H2O, adjust pH to 10.0 with HCl or NaOH, boil in microwave, cool, check pH, repeat procedure until pH stable at 10.0, add MilliQ H2O to 100 ml total volume, make 1 ml aliquots and store at −80° C.\nn. MgCl2, Fischer Cat. # M33-500, make up 1M solution.\no. HEPES, Fischer Cat. # BP310-500, to 200 ml MilliQ H2O, add 59.6 g material, adjust pH to 7.5, bring volume to 250 ml total, sterile filter.\np. Albumin, Bovine (BSA), Sigma Cat. # A-4503, to 30 grams material add sterile distilled water to make total volume of 300 ml, store at 4° C.\nq. TBST Buffer: to approx. 900 ml dH2O in a 1 L graduated cylinder add 6.057 g TRIS and 8.766 g NaCl, when dissolved, adjust pH to 7.2 with HCl, add 1.0 ml Triton X-100 and bring to 1 L total volume with dH2O.\nr. Goat Affinity purified antibody Rabbit IgG (whole molecule), Cappel Cat. # 55641.\ns. Anti h-Met (C-28) rabbit polyclonal IgG antibody, Santa Cruz Chemical Cat. # SC-161.\nt. Transiently Transfected EGFR/Met chimeric cells (EMR) (Komada, et al., Oncogene, 8:2381-2390 (1993).\nu. Sodium Carbonate Buffer, ([…], Fischer Cat. # S495) to 10.6 g material add 800 ml MilliQ H2O, when dissolved adjust pH to 9.6 with NaOH, bring up to 1 L total volume with MilliQ H2O, filter, store at 4° C.\nAll of the following steps are conducted at room temperature unless it is specifically indicated otherwise. All ELISA plate washing is by rinsing 4× with TBST.\nThis procedure can be performed the night before or immediately prior to the start of receptor capture.\n1. Quick thaw lysates in a 37° C. waterbath with a swirling motion until the last crystals disappear.\n2. Lyse cell pellet with 1× HNTG containing 1 mM PMSF. Use 3 ml of HNTG per 15 cm dish of cells. Add ½ the calculated HNTG volume, vortex the tube for 1 min., add the remaining amount of HNTG, vortex for another min.\n3. Balance tubes, centrifuge at 10,000× g for 10 min at 4° C.\n4. Pool supernatants, remove an aliquot for protein determination.\n5. Quick freeze pooled sample in dry ice/ethanol bath. This step is performed regardless of whether lysate will be stored overnight or used immediately following protein determination.\n6. Perform protein determination using standard bicinchoninic acid (BCA) method (BCA Assay Reagent Kit from Pierce Chemical Cat. # 23225).\n1. Coat Corning 96 well ELISA plates with 5 μg per well Goat anti-Rabbit antibody in Carbonate Buffer for a total well volume of 50 μl. Store overnight at 4° C. […]", "units": {"Met Kinase % Inhibition (P.130)": "%"}, "values": [
      {"smiles": "C=C(C)C1CC=C(C=C2C(=O)Nc3c(Br)cc(Br)c(C)c32)CC1", "note": "(stereo not drawn) [10731/H04]", "Met Kinase % Inhibition (P.130)": 41.0},
      {"smiles": "Cc1c(Br)cc(Br)c2c1C(=Cc1coc3ccc(C(C)C)cc3c1=O)C(=O)N2", "note": "[10731/H05]", "Met Kinase % Inhibition (P.130)": 32.2},
      {"smiles": "Cc1ccc2occ(C=C3C(=O)Nc4c(Br)cc(Br)c(C)c43)c(=O)c2c1", "note": "[10731/H06]", "Met Kinase % Inhibition (P.130)": 17.2},
      {"smiles": "Cc1c(Br)cc(Br)c2c1C(=Cc1coc3ccc([N+](=O)[O-])cc3c1=O)C(=O)N2", "note": "[10731/H07]", "Met Kinase % Inhibition (P.130)": 1.8},
      {"smiles": "Cc1c(Br)cc(Br)c2c1C(=Cc1c[nH]c(=O)[nH]c1=O)C(=O)N2", "note": "[10731/H08]", "Met Kinase % Inhibition (P.130)": 10.9},
      {"smiles": "COc1ccc2[nH]cc(C=C3C(=O)Nc4c(Br)cc(Br)c(C)c43)c2c1", "note": "[10731/H09]", "Met Kinase % Inhibition (P.130)": 12.8},
      {"smiles": "Cc1c(Br)cc(Br)c2c1C(=C1C(=O)N(C)c3ccccc31)C(=O)N2", "note": "[10731/H10]", "Met Kinase % Inhibition (P.130)": 28.4},
      {"smiles": "Cc1c(Br)cc(Br)c2c1C(=CC(c1cccs1)C(F)(F)F)C(=O)N2", "note": "(stereo not drawn) [10732/H02]", "Met Kinase % Inhibition (P.130)": 56.8},
      {"smiles": "COc1c(C(C)C)cc(C=C2C(=O)Nc3c(Br)cc(Br)c(C)c32)cc1C(C)C", "note": "[10732/H03]", "Met Kinase % Inhibition (P.130)": 24.1},
      {"smiles": "Cc1c(Br)cc(Br)c2c1C(=Cc1cc(C(C)C)c(Oc3ccccc3)c(C(C)C)c1)C(=O)N2", "note": "[10732/H04]", "Met Kinase % Inhibition (P.130)": 57.6},
      {"smiles": "COc1ccc(C=C2C(=O)Nc3c(Br)cc(Br)c(C)c32)cc1C(C)(C)C", "note": "[10732/H05]", "Met Kinase % Inhibition (P.130)": 13.3},
      {"smiles": "Cc1c(Br)cc(Br)c2c1C(=Cc1ccc(OCc3ccccc3)c(C(C)(C)C)c1)C(=O)N2", "note": "[10732/H06]", "Met Kinase % Inhibition (P.130)": 31.1},
      {"smiles": "COc1c(Br)cc(C=C2C(=O)Nc3c(Br)cc(Br)c(C)c32)cc1C(C)(C)C", "note": "[10732/H07]", "Met Kinase % Inhibition (P.130)": 26.7},
      {"smiles": "Cc1c(Br)cc(Br)c2c1C(=Cc1cc(Br)c(OCc3ccccc3)c(C(C)(C)C)c1)C(=O)N2", "note": "[10732/H08]", "Met Kinase % Inhibition (P.130)": 38.7},
      {"smiles": "COc1c(Cl)cc(C=C2C(=O)Nc3c(Br)cc(Br)c(C)c32)cc1C(C)(C)C", "note": "[10732/H09]", "Met Kinase % Inhibition (P.130)": 49.8},
      {"smiles": "Cc1c(Br)cc(Br)c2c1C(=Cc1cc(Cl)c(OCc3ccccc3)c(C(C)(C)C)c1)C(=O)N2", "note": "[10732/H10]", "Met Kinase % Inhibition (P.130)": 28.0},
      {"smiles": "COc1c(I)cc(C=C2C(=O)Nc3c(Br)cc(Br)c(C)c32)cc1C(C)(C)C", "note": "[10732/H11]", "Met Kinase % Inhibition (P.130)": 46.7},
      {"smiles": "Cc1c(Br)cc(Br)c2c1C(=Cc1cc(I)c(OCc3ccccc3)c(C(C)(C)C)c1)C(=O)N2", "note": "[10733/H02]", "Met Kinase % Inhibition (P.130)": 38.9},
      {"smiles": "COc1c([N+](=O)[O-])cc(C=C2C(=O)Nc3c(Br)cc(Br)c(C)c32)cc1C(C)(C)C", "note": "[10733/H03]", "Met Kinase % Inhibition (P.130)": 0.6},
      {"smiles": "COc1c(C(C)(C)C)cc(C=C2C(=O)Nc3c(Br)cc(Br)c(C)c32)cc1C(C)(C)C", "note": "[10733/H04]", "Met Kinase % Inhibition (P.130)": 11.9},
      {"smiles": "Cc1c(Br)cc(Br)c2c1C(=Cc1cc(C(C)(C)C)c(OCc3ccccc3)c(C(C)(C)C)c1)C(=O)N2", "note": "[10733/H05]", "Met Kinase % Inhibition (P.130)": 5.6},
      {"smiles": "COc1c(C)cc(C=C2C(=O)Nc3c(Br)cc(Br)c(C)c32)cc1C", "note": "[10733/H06]", "Met Kinase % Inhibition (P.130)": 18.4},
      {"smiles": "Cc1cc(C=C2C(=O)Nc3c(Br)cc(Br)c(C)c32)cc(C)c1OCc1ccccc1", "note": "[10733/H07]", "Met Kinase % Inhibition (P.130)": "−1.3"},
      {"smiles": "COc1cc(Br)cc(C=C2C(=O)Nc3c(Br)cc(Br)c(C)c32)c1O", "note": "[10733/H08]", "Met Kinase % Inhibition (P.130)": 41.6},
      {"smiles": "Cc1c(Br)cc(Br)c2c1C(=Cc1cc(Br)ccc1O)C(=O)N2", "note": "[10733/H09]", "Met Kinase % Inhibition (P.130)": 51.9},
      {"smiles": "Cc1c(Br)cc(Br)c2c1C(=Cc1cc([N+](=O)[O-])ccc1O)C(=O)N2", "note": "[10733/H10]", "Met Kinase % Inhibition (P.130)": 26.5},
      {"smiles": "COc1c(O)ccc(C=C2C(=O)Nc3c(Br)cc(Br)c(C)c32)c1[N+](=O)[O-]", "note": "[10733/H11]", "Met Kinase % Inhibition (P.130)": 76.7}
    ]}
  ]
}
